Experimental data published in patent US20040029953A1, “Use of neuropeptide-y antagonists in treatment of alcoholism” (priority 2000, published 2004).
Entries after “also recorded” stand apart in the source; their conditions may differ.

Assays:
rats = settings: cited from earlier work
Long-Evans rats = assay: Ethanol (10% v/v) vs. water self-administration after infusion in the PVN, sucrose-faded rats with long-term ethanol history; type: in vivo, rat
From the text: The effectiveness of known NPY receptor antagonists and NPY Y1-selective or Y5selective receptor antagonists in reducing craving for alcohol and reducing self-administration of alcohol can be tested in experimental animal models. Briefly, Long-Evans rats are conditioned to the laboratory environment and trained to self-administer concurrent ethanol (10% v/v) vs. water using a sucrose-fading procedure (H. H. Samson, Alcohol Clin. Exp. Res., 1986, 10:436442) as described by Hodge et al. (Alcohol, 1993, 10:191-196). Stereotaxic surgery is performed to implant injector guide cannulae aimed at the PVN. Microinjections of test compounds are given, with and without concomitant injection of NPY, into the PVN of the conditioned rats, which are then immediately given the opportunity to self-administer either water or ethanol (10% v/v). The volume of ethanol and water consumed are measured. Ethanol intake is converted from milliliters consumed to gram/kilogram body weight. Relative ethanol intake (preference) is calculated as […] of ethanol consumed divided by total fluid intake (ethanol+water […]). Drug dose effects are analyzed by one-way repeated measures analysis of variance (ANOVA). Post-hoc comparisons between drug doses and vehicle control are conducted using a paired t-test or Dunnett's t-test where appropriate (SigmaStat, Jandel, San Rafael, Calif.).
Animals. Thirty-six male Long-Evans rats (Harlan, Indianapolis, Ind.) were housed individually in Plexiglas cages. Access to water was restricted during the first day of behavioral training, but was continuously available for the remainder of the experiment. Food was always available in the home cage. In experimental chambers, ethanol (10% v/v) and water were available concurrently during daily (M-F) sessions. The animal colony room was maintained on a 12L:12D cycle with the lights on at 06:30. Experimental sessions were run during the light portion of the cycle. All experimental procedures were conducted under institutional and NIH guidelines.
Apparatus. Experimental sessions were conducted in Plexiglas chambers (27×37×21 cm) located in sound-attenuating cubicles (MED Associates, model ENV 016M, Lafayette, Ind.). Chambers were equipped with exhaust fans that masked external noise. The right wall of each chamber contained two 50-ml drinking bottles. Drug solutions were administered bilaterally through stainless steel injectors (Plastics One, Roanoke, Va.), which were connected via plastic tubing to two 1.0 μl syringes (Hamilton, Reno, Nev.). Syringes were mounted on a micro-infusion pump (Harvard Apparatus, Model 22, Natick, Mass.) set to deliver 0.5 μl/min/syringes.
Self-administration procedures. After 2 weeks of adaptation to laboratory housing conditions, fluid access was restricted to 1-h per day (for 2 days only) and two groups of rats (n=12 per group) were trained to drink from the bottles in the experimental chambers by overnight access to sucrose (10% w/v) vs. water during one overnight session. Daily 1 hour sessions were then conducted with sucrose (10% w/v) vs. water available concurrently. The location (i.e., left or right side of the chamber) of the sucrose and water solutions was alternated daily. When sucrose and water intake patterns stabilized, the rats were trained to self-administer concurrent ethanol (10% v/v) vs. water using a sucrose-fading procedure (H. H. Samson, Alcohol Clin. Exp. Res., 1986, 10:436-442) as previously described (e.g., Hodge et al., 1993). Briefly, ethanol was gradually added to the sucrose solution and then sucrose was faded out of the solution until rats were self-administering 10% ethanol vs. water. During the 2-month sucrose-fading procedure, the location of the ethanol/sucrose solution and water were alternated daily.

[1] = test system: rats trained to self-administer ethanol vs. water; assay: Microinjection in the central nucleus of the amygdala (CeA), ethanol vs. water self-administration; type: in vivo, rat
Experimental: FIG. 4 depicts a dose response curve showing the effects the NPY-Y1 antagonist BIBP 3226 in the central nucleus of the Amygdala.
To further elucidate the role of NPY receptors in alcohol-seeking behavior, the NPY-Y1 […] BIBP 3226 was injected in the central nucleus of the amygdala (CeA) of rats trained to self-administer ethanol vs. water as described (Kelley et al., 2001 Peptides 22: 515-522). The CeA was chosen as an additional test site because, in addition to the hypothalamus, this brain region contains significant numbers of NPY receptors.

Y1 receptor = target: T1, Y1 receptor (Homo sapiens, UniProt P25929); settings: cited from earlier work
T1 sequence (P25929 1-384): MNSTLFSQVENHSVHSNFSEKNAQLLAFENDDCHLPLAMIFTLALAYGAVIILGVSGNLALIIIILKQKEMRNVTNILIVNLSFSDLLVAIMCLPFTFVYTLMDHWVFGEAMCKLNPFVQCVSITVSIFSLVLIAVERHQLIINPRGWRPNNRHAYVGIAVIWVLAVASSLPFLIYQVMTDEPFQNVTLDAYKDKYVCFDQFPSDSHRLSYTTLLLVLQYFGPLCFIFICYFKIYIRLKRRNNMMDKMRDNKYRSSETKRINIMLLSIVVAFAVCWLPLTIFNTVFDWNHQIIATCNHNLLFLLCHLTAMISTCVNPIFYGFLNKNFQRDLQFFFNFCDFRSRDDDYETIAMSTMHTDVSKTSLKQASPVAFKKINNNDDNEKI

[2] = BIBP 3226 (10.6 μm) alone in the PVN

In the case of “[Pro^34]-NPY: Y1 agonist that stimulates feeding”, the “food intake relative to that seen following the injection of NPY” value (rats; rat, in vivo) is given as “approximately 50%”.
For `N=C(N)NCCC[C@@H](NC(=O)C(c1ccccc1)c1ccccc1)C(=O)NCc1ccc(O)cc1` [BIBP 3226, (R)-N^2-(diphenylacetyl)-N-[(4-hydroxyphenyl)methyl]-D-arginine amide], the ethanol intake (Long-Evans rats; [2]) was “no significant effect”, the ethanol preference (Long-Evans rats; [2]) was “no significant effect” and the water intake (Long-Evans rats; [2]) was “no significant effect”. For the same molecule, the “NPY-induced increase in ethanol intake” value (Long-Evans rats; BIBP 3226 co-administered with NPY (10 fmol) in the PVN) was “completely blocked”, the “dose of self-administered ethanol” value ([1]; BIBP 3226 in the CeA, highest dose, 1-hour sessions, vs vehicle, p<0.05) was “reduced ethanol self-administration after infusion of the highest dose; also recorded: significantly reduced alcohol self-administration; also recorded: significantly reduced the dose of alcohol that was self-administered” and the water intake ([1]; BIBP 3226 injected in the CeA) was “no effect on water intake”.
In the case of “NPY 2-36: an N-terminal truncated NPY fragment”, the “affinity for the Y1 receptor subtype” value (Y1 receptor) is given as “low potency”.
For `N=C(N)NCCC[C@@H](NC(=O)C(c1ccccc1)c1ccccc1)C(=O)NCc1ccc(CNC(N)=O)cc1.O=C(O)C(F)(F)F` [BIBO 3304, (R)-N-[[4-(aminocarbonylaminomethyl)-phenyl]methyl]-N^2-(diphenylacetyl)arginine amide trifluoroacetate], the “food intake induced by application of NPY or by fasting” value (rats; rats) is listed as “significantly inhibits food intake”.
